From the supplement of paper PMC7840683
Structures can show the parent of a compound that is named as a salt. ± gives the standard deviation of the averaged measurements.

Tested on: HepaRG
Experiment: LDH release cytotoxicity, % of total lysis control; higher = more cytotoxic
Conditions: 48 h
Outline: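 Eight-point half-log series of test chemicals, the highest at 100 µM, were given in duplicate for 48 h to single-lot HepaRG cells on collagen I-coated 96-well plates in serum-free induction medium with 0.5% DMSO. A Tecan Safire read resorufin fluorescence from CytoTox-ONE as a measure of LDH in 50 µL spent medium, with 0.1% Triton X in total lysis wells. Percent cytotoxicity was normalized to on-plate vehicle and total lysis controls and averaged over the duplicates.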

C#CCOC(=O)C(C)Oc1ccc(Oc2ncc(Cl)cc2F)cc1 (stereo not given) [Clodinafop-propargyl]
Conditions	LDH release cytotoxicity [%]
0.03162 µM	-1.35 ± 0.68
0.1 µM	-1.3 ± 0.75
0.3162278 µM	-1.68 ± 0.23
1 µM	-0.544 ± 0.27
3.16228 µM	-1.29 ± 0.021
10 µM	-0.851 ± 0.15
31.6228 µM	-0.0728 ± 0.36
100 µM	0.27 ± 0.25

Clc1ccccc1-c1nnc(-c2ccccc2Cl)nn1 [Clofentezine]
Conditions	LDH release cytotoxicity [%]
0.03162 µM	-1.43 ± 0.094
0.1 µM	-0.835 ± 0.41
0.3162278 µM	-0.246 ± 0.27
1 µM	-1.9 ± 0.72
3.16228 µM	-0.967 ± 0.31
10 µM	-1.22 ± 0.43
31.6228 µM	-0.912 ± 0.23
100 µM	0.757 ± 0.29

CCOC(=O)C(C)(C)Oc1ccc(Cl)cc1 [Clofibrate]
Conditions	LDH release cytotoxicity [%]
0.03162 µM	-0.811 ± 0.59
0.1 µM	-0.737 ± 0.38
0.3162278 µM	-1.03 ± 0.3
1 µM	-0.873 ± 1.4
3.16228 µM	-1.56 ± 0.66
10 µM	-0.987 ± 0.99
31.6228 µM	-0.0208 ± 0.16
100 µM	1.51 ± 0.15

CC1(C)CON(Cc2ccccc2Cl)C1=O [Clomazone]
Conditions	LDH release cytotoxicity [%]
0.03162 µM	-5.32 ± 1.1
0.1 µM	-6.75 ± 0.27
0.3162278 µM	-6.22 ± 0.37
1 µM	-6.24 ± 0.67
3.16228 µM	-6.33 ± 1.5
10 µM	-5.74 ± 0.57
31.6228 µM	-5.91 ± 0.59
100 µM	-4.53 ± 0.15

CCN(CC)CCOc1ccc(C(=C(Cl)c2ccccc2)c2ccccc2)cc1 [Clomiphene citrate (1:1)]
Conditions	LDH release cytotoxicity [%]
0.0265631 µM	-2.02 ± 0.85
0.084 µM	-1.22 ± 1.1
0.265631 µM	-0.767 ± 0.54
0.84 µM	-1.18 ± 0.029
2.6563132 µM	-0.65 ± 0.39
8.4 µM	-1.17 ± 0.63
26.563132 µM	9.07 ± 8.3
84 µM	95.2 ± 1.5

CC(Oc1cccc(Cl)c1)C(=O)O (stereo not given) [Cloprop]
Conditions	LDH release cytotoxicity [%]
0.03162 µM	-1.06 ± 1.4
0.1 µM	-0.561 ± 0.06
0.3162278 µM	-0.691 ± 0.98
1 µM	-0.434 ± 0.14
3.16228 µM	-0.762 ± 0.08
10 µM	-0.167 ± 0.17
31.6228 µM	-0.608 ± 0.19
100 µM	0.547 ± 0.3

O=C(O)c1nc(Cl)ccc1Cl [Clopyralid-olamine]
Conditions	LDH release cytotoxicity [%]
0.03162 µM	-1.75 ± 0.021
0.1 µM	-1.37 ± 0.22
0.3162278 µM	-2.18 ± 0.81
1 µM	-3.35 ± 1.5
3.16228 µM	-1.65 ± 0.032
10 µM	-1.04 ± 0.99
31.6228 µM	-1.18 ± 0.77
100 µM	0.521 ± 0.14

O=C(O)c1nc(Cl)ccc1Cl [Clopyralid]
Conditions	LDH release cytotoxicity [%]
0.03162 µM	-0.598 ± 0.35
0.1 µM	-1.08 ± 0.48
0.3162278 µM	-0.606 ± 0.19
1 µM	-1.03 ± 0.57
3.16228 µM	-0.337 ± 0.046
10 µM	0.0712 ± 0.39
31.6228 µM	0.653 ± 1.2
100 µM	2.21 ± 0.38

Oc1ccc(Cl)cc1Cc1ccccc1 [Clorophene]
Conditions	LDH release cytotoxicity [%]
0.031939 µM	-1.4 ± 0.39
0.101 µM	-1.14 ± 0.47
0.31939 µM	-1.6 ± 0.87
1.01 µM	-1.11 ± 1.2
3.1939004 µM	-0.749 ± 0.49
10.1 µM	-0.231 ± 0.26
31.939 µM	-0.479 ± 0.25
101 µM	54 ± 2

CN/C(=N\[N+](=O)[O-])NCc1cnc(Cl)s1 [Clothianidin]
Conditions	LDH release cytotoxicity [%]
0.03162 µM	-0.975 ± 0.7
0.1 µM	-0.34 ± 0.13
0.3162278 µM	-1.12 ± 0.038
1 µM	-0.952 ± 0.36
3.16228 µM	-0.743 ± 0.035
10 µM	-0.23 ± 0.17
31.6228 µM	-0.557 ± 0.27
100 µM	0.586 ± 0.26

Clc1ccccc1C(c1ccccc1)(c1ccccc1)n1ccnc1 [Clotrimazole]
Conditions	LDH release cytotoxicity [%]
0.03162 µM	-0.964 ± 0.54
0.1 µM	-0.87 ± 0.1
0.3162278 µM	-1.49 ± 0.34
1 µM	-1.36 ± 0.98
3.16228 µM	-0.966 ± 0.17
10 µM	4.28 ± 0.79
31.6228 µM	11.6 ± 2.4
100 µM	82.1 ± 1.4

COc1cc2c(c(OC)c1OC)-c1ccc(OC)c(=O)cc1C(NC(C)=O)CC2 (stereo not given) [Colchicine]
Conditions	LDH release cytotoxicity [%]
0.031623 µM	2.9 ± 1.9
0.1 µM	7.47 ± 1.3
0.316228 µM	10.8 ± 1.7
1 µM	10.1 ± 2.2
3.16228 µM	11.5 ± 4.3
10 µM	10.1 ± 0.93
31.6228 µM	7.72 ± 1.5
100 µM	5.064 ± 0.022

CC12CCC(=O)C=C1CCC1C2C(O)CC2(C)C(C(=O)CO)CCC12 (stereo not given) [Corticosterone]
Conditions	LDH release cytotoxicity [%]
0.03162 µM	-1.65 ± 0.13
0.1 µM	-0.683 ± 1.9
0.3162278 µM	0.128 ± 1.4
1 µM	-1.19 ± 0.62
3.16228 µM	-0.76 ± 0.84
10 µM	-0.609 ± 0.51
31.6228 µM	-0.274 ± 0.58
100 µM	1.02 ± 0.92

CN1C(=O)CCC1c1cccnc1 (stereo not given) [Cotinine]
Conditions	LDH release cytotoxicity [%]
0.03162 µM	-0.994 ± 0.49
0.1 µM	-2.34 ± 0.73
0.3162278 µM	-0.492 ± 0.14
1 µM	-1.31 ± 0.42
3.16228 µM	-0.499 ± 0.41
10 µM	-0.978 ± 0.13
31.6228 µM	-0.74 ± 0.22
100 µM	0.597 ± 0.61

CCOP(=S)(OCC)Oc1ccc2c(C)c(Cl)c(=O)oc2c1 [Coumaphos]
Conditions	LDH release cytotoxicity [%]
0.031623 µM	-0.785 ± 0.75
0.1 µM	-3.39 ± 0.25
0.316228 µM	-2.36 ± 0.68
1 µM	-2.83 ± 0.67
3.16228 µM	-3.28 ± 0.22
10 µM	-3.57 ± 0.062
31.6228 µM	-2.86 ± 0.88
100 µM	5.7 ± 1.4

O=c1ccc2ccccc2o1 [Coumarin]
Conditions	LDH release cytotoxicity [%]
0.03162 µM	-1.09 ± 0.14
0.1 µM	-0.766 ± 1.4
0.3162278 µM	-0.788 ± 0.28
1 µM	-1.992 ± 0.0095
3.16228 µM	-1.12 ± 0.68
10 µM	-2.38 ± 1.8
31.6228 µM	-0.666 ± 0.38
100 µM	6.17 ± 9.2

CC(C)(OO)c1ccccc1 [Cumene hydroperoxide]
Conditions	LDH release cytotoxicity [%]
0.03162 µM	-1.39 ± 0.22
0.1 µM	0.0774 ± 0.7
0.3162278 µM	-0.106 ± 0.65
1 µM	-0.2 ± 0.59
3.16228 µM	0.797 ± 0.57
10 µM	0.939 ± 1.3
31.6228 µM	0.476 ± 0.51
100 µM	1.68 ± 0.062

N#CN [Cyanamide]
Conditions	LDH release cytotoxicity [%]
0.03162 µM	-0.717 ± 0.38
0.1 µM	-2.37 ± 0.27
0.3162278 µM	-1.74 ± 0.7
1 µM	-1.73 ± 0.39
3.16228 µM	-2.07 ± 0.26
10 µM	-1.59 ± 0.22
31.6228 µM	-1.21 ± 0.71
100 µM	-0.0755 ± 0.84

CCNc1nc(Cl)nc(NC(C)(C)C#N)n1 [Cyanazine]
Conditions	LDH release cytotoxicity [%]
0.03162 µM	-0.628 ± 0.49
0.1 µM	-0.139 ± 1.2
0.3162278 µM	-0.711 ± 0.36
1 µM	-1.27 ± 0.13
3.16228 µM	-0.482 ± 0.15
10 µM	-0.431 ± 0.068
31.6228 µM	-0.343 ± 0.24
100 µM	0.714 ± 0.2

Oc1nc(O)nc(O)n1 [Cyanuric acid]
Conditions	LDH release cytotoxicity [%]
0.0314647 µM	-2.84 ± 0.097
0.0995 µM	-3.15 ± 0.5
0.3146466 µM	-2.69 ± 0.67
0.995 µM	-2.08 ± 0.61
3.14647 µM	-2.52 ± 0.74
9.95 µM	-1.85 ± 1.4
31.4647 µM	-1.63 ± 0.51
99.5 µM	-0.7 ± 1.2
